Values quoted from earlier work as cited in US6676951B1, “Host-guest processes and formulations for delivering bio-affecting compounds” (priority 1999, dated 2004).

Conditions: C=O bond external to the ring

O=C1O[C@H]([C@@H](O)CO)C(O)=C1O [ascorbic acid, L-ascorbic acid]
pKa of the C=O external to the ring structure: 4.5
